In ChEMBL document CHEMBL4311982, “Discovery of novel, potent, isosteviol-based antithrombotic agents” (Eur J Med Chem, 2019):

How the values were obtained:
Coagulation factor X = Coagulation factor X (Homo sapiens, UniProt P00742); assay: Inhibition of human activated Factor X using S-2765 as substrate incubated for 15 mins followed by substrate addition and measured after 1 hr by chromogenic assay
Wherever TT is given: test concentration or dose not given here.

Chain of Coagulation factor X (P00742 41-179 limits assumed): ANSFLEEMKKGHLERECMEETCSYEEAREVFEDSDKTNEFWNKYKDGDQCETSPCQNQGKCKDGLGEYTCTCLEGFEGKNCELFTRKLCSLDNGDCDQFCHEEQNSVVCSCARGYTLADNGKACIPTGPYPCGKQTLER
Chain of Coagulation factor X (P00742 235-488 limits assumed): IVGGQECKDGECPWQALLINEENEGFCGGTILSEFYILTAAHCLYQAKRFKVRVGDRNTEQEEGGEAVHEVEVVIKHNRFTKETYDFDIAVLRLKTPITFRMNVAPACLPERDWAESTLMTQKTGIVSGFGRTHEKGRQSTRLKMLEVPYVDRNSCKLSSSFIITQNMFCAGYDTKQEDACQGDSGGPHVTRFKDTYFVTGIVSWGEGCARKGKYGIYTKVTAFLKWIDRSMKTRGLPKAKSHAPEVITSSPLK

Row | Compound | Ki (Coagulation factor X) [µM] | TT (Rattus norvegicus) [min]
1 | CCOC(=O)[C@]1(C)CCC[C@@]2(C)[C@@H]3CC[C@@]4(C)C[C@]3(CC[C@@H]21)C/C4=N\OC/C=C/c1ccc2[nH]ccc2c1 | 4.67 | 
2 | CCOC(=O)[C@]1(C)CCC[C@@]2(C)[C@@H]3CC[C@@]4(C)C[C@]3(CC[C@@H]21)C/C4=N\OC/C=C/c1ccc2oc3ccccc3c2c1 | 21 | 
3 | CCOC(=O)[C@]1(C)CCC[C@@]2(C)[C@@H]3CC[C@@]4(C)C[C@]3(CC[C@@H]21)C/C4=N\OC/C=C/c1ccc2sccc2c1 | 0.211 | 
4 | CCOC(=O)[C@]1(C)CCC[C@@]2(C)[C@@H]3CC[C@@]4(C)C[C@]3(CC[C@@H]21)C/C4=N/O | 2.65 | 18.9
5 | CCOC(=O)[C@]1(C)CCC[C@@]2(C)[C@@H]3CC[C@@]4(C)C[C@]3(CC[C@@H]21)C/C4=N\OCc1ccc(C(F)(F)F)cc1 | 2.69 | 
6 | CCOC(=O)[C@]1(C)CCC[C@@]2(C)[C@@H]3CC[C@@]4(C)C[C@]3(CC[C@@H]21)C/C4=N\OC/C=C/c1c[nH]c(C(=O)OC)c1 | 1.91 | 
7 | CCOC(=O)[C@]1(C)CCC[C@@]2(C)[C@@H]3CC[C@@]4(C)C[C@]3(CC[C@@H]21)C/C4=N\OC/C=C/c1ccc2occc2c1 | 10.3 | 
8 | CCOC(=O)[C@]1(C)CCC[C@@]2(C)[C@@H]3CC[C@@]4(C)C[C@]3(CC[C@@H]21)C/C4=N\OC/C=C/c1ccc(CN2CCOCC2)cc1 | 2.49 | 
9 | CCOC(=O)[C@]1(C)CCC[C@@]2(C)[C@@H]3CC[C@@]4(C)C[C@]3(CC[C@@H]21)C/C4=N\OC1CCOCC1 | 1.81 | 
10 | CCOC(=O)[C@]1(C)CCC[C@@]2(C)[C@@H]3CC[C@@]4(C)C[C@]3(CC[C@@H]21)CC4=O | 4.58 | 14.9
11 | CCOC(=O)[C@]1(C)CCC[C@@]2(C)[C@@H]3CC[C@@]4(C)C[C@]3(CC[C@@H]21)C/C4=N\OC/C=C/c1ccc(OC(F)(F)F)cc1 | 1.97 | 
12 | CCOC(=O)[C@]1(C)CCC[C@@]2(C)[C@@H]3CC[C@@]4(C)C[C@]3(CC[C@@H]21)C/C4=N\OCc1ccc(OC(F)(F)F)cc1 | 1.02 | 
13 | CCOC(=O)[C@]1(C)CCC[C@@]2(C)[C@@H]3CC[C@@]4(C)C[C@]3(CC[C@@H]21)C/C4=N\OCc1cccc(Cl)c1 | 18.1 | 
14 | C[C@@]12CC[C@@H]3[C@@](CC[C@H]4[C@@]3(C)CCC[C@@]4(C)C(=O)O)(C/C1=N/O)C2 | 7.99 | 12.9
15 | C[C@@]12CC[C@@H]3[C@@](CC[C@H]4[C@@]3(C)CCC[C@@]4(C)C(=O)O)(C[C@H]1O)C2 | 27.6 | 9.2
16 | CCOC(=O)[C@]1(C)CCC[C@@]2(C)[C@@H]3CC[C@@]4(C)C[C@]3(CC[C@@H]21)C[C@H]4O | 25.1 | 9.4
17 | COC(=O)[C@H](c1ccccc1Cl)N1CCc2sccc2C1 [CLOPIDOGREL] |  | 21
18 | C[C@@]12CC[C@@H]3[C@@](CC[C@H]4[C@@]3(C)CCC[C@@]4(C)C(=O)O)(CC1=O)C2 [ISOSTEVIOL] | 13.4 | 17.2

More lines, in order of falling Ki (Coagulation factor X), values ahead:

Row | Ki (Coagulation factor X) [µM] | Compound | TT (Rattus norvegicus) [min]
19 | 26.4 | CCOC(=O)[C@]1(C)CCC[C@@]2(C)[C@@H]3CC[C@@]4(C)C[C@]3(CC[C@@H]21)C/C4=N\OC/C=C/c1ccc2[nH]c3ccccc3c2c1 | 
20 | 20.7 | CCOC(=O)[C@]1(C)CCC[C@@]2(C)[C@@H]3CC[C@@]4(C)C[C@]3(CC[C@@H]21)C/C4=N\OC/C=C/c1ccc2c(c1)COC2=O | 
21 | 13.3 | CCOC(=O)[C@]1(C)CCC[C@@]2(C)[C@@H]3CC[C@@]4(C)C[C@]3(CC[C@@H]21)C/C4=N\OC/C=C/c1ccc(C#N)cc1 | 
22 | 12.1 | CCOC(=O)[C@]1(C)CCC[C@@]2(C)[C@@H]3CC[C@@]4(C)C[C@]3(CC[C@@H]21)C/C4=N\OC/C=C/c1cccc2ccccc12 | 
23 | 10.7 | CCOC(=O)[C@]1(C)CCC[C@@]2(C)[C@@H]3CC[C@@]4(C)C[C@]3(CC[C@@H]21)C/C4=N\OC/C=C/c1ccccc1 | 
24 | 9.88 | CCOC(=O)c1ccc(CO/N=C2\C[C@]34CC[C@H]5[C@@](C)(CCC[C@@]5(C)C(=O)OCC)[C@@H]3CC[C@@]2(C)C4)o1 | 
25 | 9.79 | CCOC(=O)[C@]1(C)CCC[C@@]2(C)[C@@H]3CC[C@@]4(C)C[C@]3(CC[C@@H]21)C/C4=N\OCc1ccc(Cl)c(F)c1 | 
26 | 9.25 | CCOC(=O)[C@]1(C)CCC[C@@]2(C)[C@@H]3CC[C@@]4(C)C[C@]3(CC[C@@H]21)C/C4=N\OCc1cc(Cl)ccc1Cl | 
27 | 8.61 | C=CCO/N=C1\C[C@]23CC[C@H]4[C@@](C)(CCC[C@@]4(C)C(=O)OCC)[C@@H]2CC[C@@]1(C)C3 | 
28 | 6.17 | CCOC(=O)[C@]1(C)CCC[C@@]2(C)[C@@H]3CC[C@@]4(C)C[C@]3(CC[C@@H]21)C/C4=N\OC/C=C/c1ccc(F)cc1 | 
29 | 4.86 | CCOC(=O)[C@]1(C)CCC[C@@]2(C)[C@@H]3CC[C@@]4(C)C[C@]3(CC[C@@H]21)C/C4=N\OC/C=C/c1cccc(C(F)(F)F)c1 | 
30 | 4.33 | CCOC(=O)[C@]1(C)CCC[C@@]2(C)[C@@H]3CC[C@@]4(C)C[C@]3(CC[C@@H]21)C/C4=N\OCc1ccc(F)cc1 | 
31 | 4.18 | CCOC(=O)[C@]1(C)CCC[C@@]2(C)[C@@H]3CC[C@@]4(C)C[C@]3(CC[C@@H]21)C/C4=N\OC/C=C/c1ccc2ncccc2c1 | 
32 | 4.03 | CCOC(=O)[C@]1(C)CCC[C@@]2(C)[C@@H]3CC[C@@]4(C)C[C@]3(CC[C@@H]21)C/C4=N\OCc1cc(C)nn1C | 
33 | 3.6 | CCOC(=O)[C@]1(C)CCC[C@@]2(C)[C@@H]3CC[C@@]4(C)C[C@]3(CC[C@@H]21)C/C4=N\OC/C=C/c1ccc2nccnc2c1 | 
34 | 2.88 | CCOC(=O)[C@]1(C)CCC[C@@]2(C)[C@@H]3CC[C@@]4(C)C[C@]3(CC[C@@H]21)C/C4=N\OCc1c(C)noc1C | 
35 | 2.64 | CCOC(=O)[C@]1(C)CCC[C@@]2(C)[C@@H]3CC[C@@]4(C)C[C@]3(CC[C@@H]21)C/C4=N\OC/C=C/c1ccc([N+](=O)[O-])cc1 | 
36 | 1.98 | CCOC(=O)[C@]1(C)CCC[C@@]2(C)[C@@H]3CC[C@@]4(C)C[C@]3(CC[C@@H]21)C/C4=N\OC/C=C/c1cc(F)c(F)c(F)c1 | 
37 | 1.94 | CCOC(=O)[C@]1(C)CCC[C@@]2(C)[C@@H]3CC[C@@]4(C)C[C@]3(CC[C@@H]21)C/C4=N\OCc1cnc(Cl)s1 | 
38 | 1.93 | CCOC(=O)[C@]1(C)CCC[C@@]2(C)[C@@H]3CC[C@@]4(C)C[C@]3(CC[C@@H]21)C/C4=N\OC/C=C/c1ccc(-c2cnco2)cc1 | 
39 | 1.64 | CCOC(=O)[C@]1(C)CCC[C@@]2(C)[C@@H]3CC[C@@]4(C)C[C@]3(CC[C@@H]21)C/C4=N\OC/C=C/c1ccc(C(C)=O)cc1 | 
40 | 1.61 | CCOC(=O)[C@]1(C)CCC[C@@]2(C)[C@@H]3CC[C@@]4(C)C[C@]3(CC[C@@H]21)C/C4=N\OCC1OCCO1 | 
41 | 0.785 | CCOC(=O)[C@]1(C)CCC[C@@]2(C)[C@@H]3CC[C@@]4(C)C[C@]3(CC[C@@H]21)C/C4=N\OCCN1CCOCC1 | 
42 | 0.515 | CCOC(=O)[C@]1(C)CCC[C@@]2(C)[C@@H]3CC[C@@]4(C)C[C@]3(CC[C@@H]21)C/C4=N\OCc1csc2ccc(Cl)cc12 | 
43 | 0.321 | CCOC(=O)[C@]1(C)CCC[C@@]2(C)[C@@H]3CC[C@@]4(C)C[C@]3(CC[C@@H]21)C/C4=N\OCc1c(F)c(F)c(F)c(F)c1F | 
